Measurements taken from patent publication US9556205B2, “Fungicide N-[(trisubstitutedsilyl)methyl]-carboxamide derivatives” (BAYER INTELLECTUAL PROPERTY GMBH, priority 2010, dated 2017).
Several values for one entry are separate records, joined by “and”; a condition that tells them apart may be missing. Equal values may be shown once.

Legend:
[1] = system: Alternaria solani; assay: In vivo preventive test on Alternaria solani (tomato); conditions: 500 ppm of active ingredient, evaluated 7 days after inoculation
Experimental: Solvent: 49 parts by weight of N,N-dimethylformamide Emulsifier: 1 part by weight of Alkylarylpolyglycolether To produce a suitable preparation of active compound, 1 part by weight of active compound is mixed with the stated amounts of solvent and emulsifier, and the concentrate is diluted with water to the desired concentration. To test for preventive activity, young plants are sprayed with the preparation of active compound at the stated rate of application. One day after this treatment, the plants are inoculated with an aqueous spore suspension of Alternaria solani. […] Then the plants are placed in an incubation cabinet at approximately 20° C. and a relative atmospheric humidity of 96%.

[2] = system: Venturia inaequalis; assay: In vivo preventive test on Venturia inaequalis (apple scab); conditions: 100 ppm of active ingredient, evaluated 10 days after inoculation
Experimental: Solvent: 24.5 parts by weight of acetone • 24.5 parts by weight of N,N-dimethylacetamide Emulsifier: 1 part by weight of alkylaryl polyglycol ether To produce a suitable preparation of active compound, 1 part by weight of active compound is mixed with the stated amounts of solvent and emulsifier, and the concentrate is diluted with water to the desired concentration. To test for protective activity, young plants are sprayed with the preparation of active compound at the stated rate of application. […] The plants are then placed in a greenhouse at approximately 21° C. and a relative atmospheric humidity of approximately 90%.

[3] = system: Botrytis cinerea; assay: In vivo preventive test on Botrytis cinerea (beans); conditions: 500 ppm of active ingredient, lesion size 2 days after inoculation
Experimental: Solvent: 24.5 parts by weight of acetone
• 24.5 parts by weight of N,N-dimethylacetamide Emulsifier: 1 part by weight of alkylaryl polyglycol ether
To produce a suitable preparation of active compound, 1 part by weight of active compound is mixed with the stated amounts of solvent and emulsifier, and the concentrate is diluted with water to the desired concentration.
To test for protective activity, young plants are sprayed with the preparation of active compound. After the spray coating has dried on, 2 small pieces of agar covered with growth of Botrytis cinerea are placed on each leaf. The inoculated plants are placed in a darkened chamber at 20° C. and a relative atmospheric humidity of 100%.
2 days after the inoculation, the size of the lesions on the leaves is evaluated. 0% means an efficacy which corresponds to that of the control, while an efficacy of 100% means that no disease is observed. Under these conditions, excellent (at least 95%) to total protection is observed at a dose of 500 ppm of active ingredient with the following compounds from table C: […]

[4] = system: Leptosphaeria nodorum; assay: In vivo preventive test on Leptosphaeria nodorum (wheat); conditions: 500 ppm of active ingredient, evaluated 8 days after inoculation
Experimental: Solvent: 49 parts by weight of N,N-dimethylacetamide Emulsifier: 1 part by weight of alkylaryl polyglycol ether To produce a suitable preparation of active compound, 1 part by weight of active compound or the compound combination is mixed with the stated amounts of solvent and emulsifier, and the concentrate is diluted with water to the desired concentration. To test for protective activity, young plants are sprayed with a preparation of active compound or active compound combination at the stated rate of application. After the spray coating has dried on, the plants are sprayed with a spore suspension of Leptosphaeria nodorum. […] The plants are placed in a greenhouse at a temperature of approximately 15° C. and a relative atmospheric humidity of approximately 80%.

[5] = system: Septoria tritici; assay: In vivo preventive test on Septoria tritici (wheat); conditions: 500 ppm of active ingredient, evaluated 21 days after inoculation
Experimental: Solvent: 49 parts by weight of N,N-dimethylacetamide Emulsifier: 1 part by weight of alkylaryl polyglycol ether To produce a suitable preparation of active compound, 1 part by weight of active compound or active compound combination is mixed with the stated amounts of solvent and emulsifier, and the concentrate is diluted with water to the desired concentration. To test for preventive activity, young plants are sprayed with the preparation of active compound or active compound combination at the stated rate of application. After the spray coating has dried on, the plants are sprayed with a spore suspension of Septoria tritici. […] The plants are placed in a greenhouse at a temperature of approximately 15° C. and a relative atmospheric humidity of approximately 80%.

[6] = system: Pyrenophora teres; assay: In vivo preventive test on Pyrenophora teres (barley), Example F; conditions: 500 ppm of active ingredient, evaluated 7-9 days after inoculation
Experimental: Solvent: 49 parts by weight of N,N-dimethylformamide Emulsifier: 1 part by weight of alkylaryl polyglycol ether To produce a suitable preparation of active compound, 1 part by weight of active compound is mixed with the stated amounts of solvent and emulsifier, and the concentrate is diluted with water to the desired concentration. To test for preventive activity, young plants are sprayed with the preparation of active compound at the stated rate of application. One day after this treatment, the plants are inoculated with an aqueous spore suspension of Pyrenophora teres. […] Then the plants are placed in a greenhouse at a temperature of approximately 20° C. and a relative atmospheric humidity of approximately 80%.

[7] = log P by HPLC on reversed-phase column (C18), EEC Directive 79/831 Annex V.A8; type: physicochemical; conditions: 40° C., 0.1% aqueous formic acid and acetonitrile, linear gradient 10% to 90% acetonitrile
Experimental: In table 1, the log P values were determined in accordance with EEC Directive 79/831 Annex V.A8 by HPLC (High Performance Liquid Chromatography) on a reversed-phase column (C18), using the method described below:
Temperature: 40° C.; Mobile phases: 0.1% aqueous formic acid and acetonitrile; linear gradient from 10% acetonitrile to 90% acetonitrile.
Calibration was carried out using unbranched alkan-2-ones (comprising 3 to 16 carbon atoms) with known log P values (determination of the log P values by the retention times using linear interpolation between two successive alkanones). lambda-max-values were determined using UV-spectra from 200 nm to 400 nm and the peak values of the chromatographic signals.

[8] = system: Aflatoxins production by Aspergillus parasiticus; type: cell-based
[9] = system: Aspergillus parasiticus; type: cell-based; conditions: 7 days at 20° C., OD620nm

Molecule `Cc1nn(C)c(F)c1C(=O)N(C[Si](C)(C)c1cccc(Cl)c1)C1CC1` [Example 27] has an Efficacy [1] of 94%, an Efficacy [2] of 100% and an Efficacy [3] of 98%. The Efficacy [4] was 100%, the Efficacy [5] was 100% and the Efficacy [6] was 100%. It also gave a logP [7] of 3.67.
For `CCc1nn(C)c(F)c1C(=O)N(C[Si](C)(C)c1ccc(Cl)cc1Cl)C1CC1` [Example 42], the Efficacy [1] was 100%, the Efficacy [2] was 99% and the Efficacy [3] was 100%. It also gave an Efficacy [4] of 100%, an Efficacy [5] of 100% and an Efficacy [6] of 100%. It also gave a logP [7] of 4.78.
With `Cn1nc(C(F)F)c(C(=O)N(C[Si](C)(C)Cc2ccccc2)C2CC2)c1F` [Example 55] the Efficacy [1] was 100%, the Efficacy [2] was 100% and the Efficacy [3] was 100%. For the same molecule, the Efficacy [4] was 100%, the Efficacy [5] was 90% and the Efficacy [6] was 100%. For the same molecule, the “% Inhibition of Aflatoxin at 50 μM” value [8] was 100%, the “% Inhibition of fungal growth at 50 μM” value [9] was 99% and the logP [7] was 4.03.
For `Cn1cc(C(=O)N(C[Si](C)(C)c2ccccc2Cl)C2CC2)c(C(F)F)n1` [Example 17], the Efficacy [1] was 94%, the Efficacy [2] was 98% and the Efficacy [4] was 94%. For the same molecule, the Efficacy [5] was 83%, the Efficacy [6] was 95% and the logP [7] was 3.73.
Work on `CCc1nn(C)c(F)c1C(=S)N(C[Si](C)(C)c1ccccc1)C1CC1` [Example 9] yielded an Efficacy [1] of 100%, an Efficacy [4] of 100% and an Efficacy [5] of 93%. It also gave an Efficacy [6] of 100% and a logP [7] of 4.41.
In the case of `Cc1nc(C(F)F)c(C(=O)N(C[Si](C)(C)c2ccccc2Cl)C2CC2)s1` [Example 21], the Efficacy [1] is reported as 95%, the Efficacy [4] is reported as 100% and the Efficacy [5] is reported as 100%. It also gave an Efficacy [6] of 100% and a logP [7] of 4.32.
`CN(C[Si](C)(C)c1ccccc1)C(=O)c1c(C(F)F)nn(C)c1F` [Example 4] gave an Efficacy [1] of 100%, an Efficacy [4] of 93% and an Efficacy [5] of 100%. The Efficacy [6] was 100%, the “% Inhibition of Aflatoxin at 50 μM” value [8] was 100% and the “% Inhibition of fungal growth at 50 μM” value [9] was 100%. It also gave a logP [7] of 3.23.
For `Cc1nn(C)c(F)c1C(=O)N(C[Si](C)(C)c1ccccc1Cl)C1CC1` [Example 19], the Efficacy [1] was 100%, the Efficacy [2] was 99% and the Efficacy [3] was 100%. For the same molecule, the Efficacy [4] was 100%, the Efficacy [5] was 100% and the Efficacy [6] was 100%. The logP [7] was 3.60.
Work on `CCc1nn(C)c(F)c1C(=O)N(C[Si](C)(C)c1cccc(Cl)c1)C1CC1` [Example 28] yielded an Efficacy [1] of 100%, an Efficacy [2] of 88% and an Efficacy [4] of 100%. For the same molecule, the Efficacy [5] was 100%, the Efficacy [6] was 100% and the logP [7] was 4.08.
For `Cc1nn(C)c(F)c1C(=O)N(C[Si](C)(C)c1ccc(Cl)cc1Cl)C1CC1` [Example 39], the Efficacy [1] was 94%, the Efficacy [2] was 100% and the Efficacy [4] was 94%. It also gave an Efficacy [5] of 100%, an Efficacy [6] of 100% and a logP [7] of 4.30.
With `Cn1nc(C(F)F)c(C(=O)N(C[Si](C)(C)Cc2cccc(Cl)c2)C2CC2)c1F` [Example 66] the Efficacy [1] was 100%, the Efficacy [6] was 100% and the “% Inhibition of Aflatoxin at 50 μM” value [8] was 100%. The “% Inhibition of fungal growth at 50 μM” value [9] was 100% and the logP [7] was 4.44.
In the case of `Cc1nn(C)c(F)c1C(=S)N(C[Si](C)(C)c1ccccc1)C1CC1` [Example 10], the Efficacy [1] is reported as 100%, the Efficacy [4] is reported as 100% and the Efficacy [5] is reported as 100%. The Efficacy [6] was 100% and the logP [7] was 3.99.
`Cc1nn(C)c(F)c1C(=O)N(C[Si](C)(C)c1cc(Cl)cc(Cl)c1)C1CC1` [Example 48] showed an Efficacy [1] of 100%, an Efficacy [4] of 100% and an Efficacy [6] of 100%. It also gave a logP [7] of 4.34.
`Cc1cc(C(=O)N(C[Si](C)(C)c2ccc(Cl)cc2Cl)C2CC2)c(C)o1` [Example 40] gave an Efficacy [5] of 100%, an Efficacy [6] of 95% and a logP [7] of 5.46.
In the case of `CCc1nn(C)c(F)c1C(=O)N(C[Si](C)(C)c1ccccc1Cl)C1CC1` [Example 20], the Efficacy [1] is reported as 100%, the Efficacy [2] is reported as 90% and the Efficacy [4] is reported as 100%. It also gave an Efficacy [5] of 92%, an Efficacy [6] of 100% and a logP [7] of 4.03.
Work on `Cc1nc(C(F)F)c(C(=O)N(C[Si](C)(C)c2cccc(Cl)c2)C2CC2)s1` [Example 32] yielded an Efficacy [4] of 100%, an Efficacy [5] of 100% and an Efficacy [6] of 95%. The logP [7] was 4.32.
Molecule `Cn1cc(C(=O)N(C[Si](C)(C)c2ccc(Cl)cc2Cl)C2CC2)c(C(F)F)n1` [Example 41] has an Efficacy [1] of 100%, an Efficacy [2] of 100% and an Efficacy [3] of 98%. The Efficacy [4] was 95%, the Efficacy [5] was 100% and the Efficacy [6] was 100%. For the same molecule, the logP [7] was 4.41.
In the case of `Cn1cc(C(=O)N(C[Si](C)(C)c2cc(Cl)cc(Cl)c2)C2CC2)c(C(F)F)n1` [Example 51], the Efficacy [1] is reported as 95%, the Efficacy [4] is reported as 80% and 95% and the Efficacy [5] is reported as 100%. For the same molecule, the Efficacy [6] was 100% and the logP [7] was 4.41.
`CCc1nn(C)c(F)c1C(=O)N(C[Si](C)(C)c1cc(Cl)cc(Cl)c1)C1CC1` [Example 49] gave an Efficacy [1] of 94%, an Efficacy [2] of 96% and an Efficacy [4] of 94%. It also gave an Efficacy [5] of 100%, an Efficacy [6] of 100% and a logP [7] of 4.78.
With `Cn1nc(C(F)F)c(C(=O)NC[Si](C)(C)c2ccccc2)c1F` [Example 1] the Efficacy [1] was 100%, the Efficacy [6] was 100% and the “% Inhibition of Aflatoxin at 50 μM” value [8] was 100%. For the same molecule, the “% Inhibition of fungal growth at 50 μM” value [9] was 93% and the logP [7] was 3.13.
With `Cn1nc(C(F)F)c(C(=O)NC[Si](C)(C)c2ccccc2)c1Cl` [Example 2] the Efficacy [1] was 95%, the Efficacy [6] was 100% and the “% Inhibition of Aflatoxin at 50 μM” value [8] was 87%. The “% Inhibition of fungal growth at 50 μM” value [9] was 71% and the logP [7] was 3.31.
Molecule `Cn1cc(C(=O)N(C[Si](C)(C)c2cccc(Cl)c2)C2CC2)c(C(F)F)n1` [Example 30] has an Efficacy [1] of 95%, an Efficacy [4] of 100% and an Efficacy [5] of 100%. For the same molecule, the Efficacy [6] was 100% and the logP [7] was 3.80.
With `Cn1nc(C(F)F)c(C(=O)NC[Si](C)(C)c2ccccc2Cl)c1F` [Example 15] the Efficacy [1] was 95%, the Efficacy [5] was 90% and the Efficacy [6] was 100%. The “% Inhibition of Aflatoxin at 50 μM” value [8] was 88%, the “% Inhibition of fungal growth at 50 μM” value [9] was 76% and the logP [7] was 3.48.
